Like-named read-outs stand apart in the source and are kept apart here.
Experiments:
[1] = biological target: human SOS1 (loading of human K-Ras^G12C-GDP with fluorescent GTP-analog) (Homo sapiens, UniProt Q07889); test: Biochemical assay 3: K-Ras^G12C activation assay by hSOS1 (HTRF); conditions: no GTP; for IC50: read-out: Assay 3 (KRAS-Activation by SOS no GTP) activity expressed as IC50
[2] = biological target: Epidermal Growth Factor Receptor (EGFR) (Homo sapiens (Human), UniProt P00533); test: EGFR kinase assay (TR-FRET); type: biochemical; conditions: read-out: EGFR kinase inhibition IC50
Epidermal Growth Factor Receptor (EGFR), sequence (P00533 25-1210): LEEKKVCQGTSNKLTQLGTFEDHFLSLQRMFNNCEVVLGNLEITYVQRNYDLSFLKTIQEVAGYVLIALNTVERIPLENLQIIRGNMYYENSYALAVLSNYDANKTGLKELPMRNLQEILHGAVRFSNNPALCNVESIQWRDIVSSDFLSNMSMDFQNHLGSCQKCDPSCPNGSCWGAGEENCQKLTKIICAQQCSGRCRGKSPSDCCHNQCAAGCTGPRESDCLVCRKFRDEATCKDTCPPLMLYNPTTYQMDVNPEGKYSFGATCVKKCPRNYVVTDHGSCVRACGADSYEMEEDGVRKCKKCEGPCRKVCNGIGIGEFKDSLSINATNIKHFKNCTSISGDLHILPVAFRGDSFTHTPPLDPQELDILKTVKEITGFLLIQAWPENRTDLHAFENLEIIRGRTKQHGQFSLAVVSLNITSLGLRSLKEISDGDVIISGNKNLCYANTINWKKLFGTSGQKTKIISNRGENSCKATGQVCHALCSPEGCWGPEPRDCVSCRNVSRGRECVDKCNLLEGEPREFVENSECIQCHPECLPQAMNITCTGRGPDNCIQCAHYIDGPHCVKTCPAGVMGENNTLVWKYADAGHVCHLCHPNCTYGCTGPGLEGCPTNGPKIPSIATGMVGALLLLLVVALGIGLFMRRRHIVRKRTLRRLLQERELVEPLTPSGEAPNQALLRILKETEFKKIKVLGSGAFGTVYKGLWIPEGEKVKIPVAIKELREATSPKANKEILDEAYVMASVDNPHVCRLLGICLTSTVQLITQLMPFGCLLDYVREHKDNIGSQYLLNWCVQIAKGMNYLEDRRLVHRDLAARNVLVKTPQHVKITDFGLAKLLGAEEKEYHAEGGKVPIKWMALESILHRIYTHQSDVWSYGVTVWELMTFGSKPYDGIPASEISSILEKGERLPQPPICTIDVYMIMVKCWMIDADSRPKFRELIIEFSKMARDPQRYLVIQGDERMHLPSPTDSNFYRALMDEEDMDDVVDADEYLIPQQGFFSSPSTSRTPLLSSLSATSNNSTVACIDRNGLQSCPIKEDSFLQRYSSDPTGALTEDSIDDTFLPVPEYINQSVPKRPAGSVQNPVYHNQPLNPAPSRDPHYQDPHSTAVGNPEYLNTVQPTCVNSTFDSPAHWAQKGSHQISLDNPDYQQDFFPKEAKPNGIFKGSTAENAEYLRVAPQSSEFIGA
Procedure, shortened: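 EGFR purified from A431 cells was preincubated with compound 15 min at 22° C in pH 7.0 Hepes buffer with MgCl2, MnCl2 and vanadate before reaction with a biotinylated peptide. After EDTA stop, phosphopeptide was detected by TR-FRET (anti-phosphotyrosine Tb-cryptate, streptavidin-XL665) as the 665/620 nm emission ratio.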

| Structure (SMILES) | IC50 [1] | IC50 ([2]; values given in μM) | inhibition at 20 µM ([1]; read-out: Assay 3 (KRAS-Activation by SOS no GTP) activity expressed as % inhibition at 20 μM, at 20 μM) | IC50 ([2]; unit inferred) |
| --- | --- | --- | --- | --- |
| COc1cc2nc(C)nc(N[C@H](C)c3ccc(-c4ccccc4CCN)s3)c2cc1OC (stereo in doubt) [Example 357, N-[1-{5-[2-(2-aminoethyl)phenyl]thiophen-2-yl}ethyl]-6,7-dimethoxy-2-methylquinazolin-4-amine] | 0.0692 µM | > 20 µM | – | – |
| COc1cc2nc(C)nc(NC(C)c3ccc(-c4ccccc4[C@@H](C)NC(=O)OC(C)(C)C)s3)c2cc1OC (stereo in doubt) [Example 358, tert-butyl {1-[2-(5-{1-[(6,7-dimethoxy-2-methylquinazolin-4-yl)amino]ethyl}thiophen-2-yl)phenyl]ethyl}carbamate] | 2.45 µM | > 20 µM | – | – |
| COc1cc2nc(C)nc(NC(C)c3ccc(-c4ccccc4[C@@H](C)N)s3)c2cc1OC (stereo in doubt) [Example 359, N-[1-(5-{2-[1-aminoethyl]phenyl}thiophen-2-yl)ethyl]-6,7-dimethoxy-2-methylquinazolin-4-amine] | 0.299 µM | > 20 µM | – | – |
| COc1cc2nc(C)nc(NC(C)c3ccc(-c4ccccc4[C@H](C)N)s3)c2cc1OC (stereo in doubt) [Example 360, N-[1-(5-{2-[1-aminoethyl]phenyl}thiophen-2-yl)ethyl]-6,7-dimethoxy-2-methylquinazolin-4-amine] | 0.19 µM | > 20 µM | – | – |
| COc1cc2nc(C)nc(NC(C)c3cccc4c3CCO4)c2cc1OC (stereo not shown) [Example 22, N-[1-(2,3-dihydro-1-benzofuran-4-yl)ethyl]-6,7-dimethoxy-2-methylquinazolin-4-amine] | 0.589 µM | > 20 µM | – | – |
| COc1cc2nc(C)nc(NC(C)c3ccc4c(c3)OCO4)c2cc1OC (stereo not shown) [Example 23, N-[1-(1,3-benzodioxol-5-yl)ethyl]-6,7-dimethoxy-2-methylquinazolin-4-amine] | 8.62 µM | > 20 µM | – | – |
| COc1cc2nc(C)nc(NC(C)c3ccc4c(c3)CCO4)c2cc1OC (stereo not shown) [Example 24, N-[1-(2,3-dihydro-1-benzofuran-5-yl)ethyl]-6,7-dimethoxy-2-methylquinazolin-4-amine] | 2.45 µM | > 20 µM | – | – |
| COc1cc2nc(C)nc(NC(C)c3ccc4c(c3)CCCC4)c2cc1OC (stereo not shown) [Example 25, 6,7-dimethoxy-2-methyl-N-[1-(5,6,7,8-tetrahydronaphthalen-2-yl)ethyl]quinazolin-4-amine] | 1.5 µM | > 20 µM | – | – |
| COc1cc2nc(C)nc(NC(C)c3c(C)nc4ccccn34)c2cc1OC (stereo not shown) [Example 26, 6,7-dimethoxy-2-methyl-N-[1-(2-methylimidazo[1,2-a]pyridin-3-yl)ethyl]quinazolin-4-amine] | 6.96 µM | > 20 µM | – | – |
| COc1cc2nc(C)nc(NC(C)c3csc4ccccc34)c2cc1OC (stereo not shown) [Example 27, N-[1-(1-benzothiophen-3-yl)ethyl]-6,7-dimethoxy-2-methylquinazolin-4-amine] | 0.498 µM | > 20 µM | – | – |
| Cc1nc(N[C@H](C)c2ccccc2)c2cc(N=S(C)(C)=O)ccc2n1 [Example 30, 6-{[dimethyl(oxido)-lambda6-sulfanylidene]amino}-2-methyl-N-[(1R)-1-phenylethyl]quinazolin-4-amine] | 2.91 µM | > 20 µM | – | – |
| Cc1nc(N[C@H](C)c2ccc(F)cc2)c2cc(N=S(C)(C)=O)ccc2n1 [Example 32, 6-{[dimethyl(oxido)-lambda6-sulfanylidene]amino}-N-[(1R)-1-(4-fluorophenyl)ethyl]-2-methylquinazolin-4-amine] | 2.59 µM | > 20 µM | – | – |
| COc1cc2nc(C)nc(NC(C)c3ccc4c(c3)NC(=O)CO4)c2cc1OC (stereo not shown) [Example 34, 6-{1-[(6,7-dimethoxy-2-methylquinazolin-4-yl)amino]ethyl}-2H-1,4-benzoxazin-3(4H)-one] | 16.8 µM | > 20 µM | – | – |
| COc1ccc2cc(C(C)Nc3nc(C)nc4cc(OC)c(OC)cc34)ccc2c1 (stereo not shown) [Example 35, 6,7-dimethoxy-N-[1-(6-methoxy-2-naphthyl)ethyl]-2-methylquinazolin-4-amine] | – | > 20 µM | 48% | – |
| COc1cc2nc(C)nc(N[C@H](C)c3cccc(-c4ccc(O)nc4)c3)c2cc1OC [Example 68, 5-(3-{(1R)-1-[(6,7-dimethoxy-2-methylquinazolin-4-yl)amino]ethyl}phenyl)pyridin-2-ol] | 0.471 µM | – | – | 6.92 µM |
| COc1cc2nc(C)nc(N[C@H](C)c3cccc(-n4cccn4)c3)c2cc1OC [Example 341, 6,7-dimethoxy-2-methyl-N-{(1R)-1-[3-(1H-pyrazol-1-yl)phenyl]ethyl}quinazolin-4-amine] | 12.2 µM | > 20 µM | – | – |

| Structure (SMILES) | IC50 [1] | IC50 ([2]; values given in μM) | inhibition at 20 µM ([1]; read-out: Assay 3 (KRAS-Activation by SOS no GTP) activity expressed as % inhibition at 20 μM, at 20 μM) | IC50 ([2]; unit inferred) |
| --- | --- | --- | --- | --- |
| COc1cc2nc(C)nc(N[C@H](C)c3cccc(Br)c3)c2cc1OCc1ccccc1 [Example 343, 6-(benzyloxy)-N-[(1R)-1-(3-bromophenyl)ethyl]-7-methoxy-2-methylquinazolin-4-amine] | 4.33 µM | > 20 µM | – | – |
| COc1cc2nc(C)nc(N[C@H](C)c3cccc(-c4cn[nH]c4)c3)c2cc1OCc1ccccc1 [Example 344, 6-(benzyloxy)-7-methoxy-2-methyl-N-{(1R)-1-[3-(1H-pyrazol-4-yl)phenyl]ethyl}-quinazolin-4-amine] | 1.86 µM | > 20 µM | – | – |
| COc1cc2nc(C)nc(N[C@H](C)c3cccc(-c4cn[nH]c4)c3)c2cc1O [Example 345, 7-methoxy-2-methyl-4-({(1R)-1-[3-(1H-pyrazol-4-yl)phenyl]ethyl}amino)quinazolin-6-ol] | 29.4 µM | > 20 µM | – | – |
| COc1cc2nc(C)nc(N[C@H](C)c3cccc(-c4cn[nH]c4)c3)c2cc1OCC1CC1 [Example 346, 6-(cyclopropylmethoxy)-7-methoxy-2-methyl-N-{(1R)-1-[3-(1H-pyrazol-4-yl)phenyl]ethyl}quinazolin-4-amine] | 0.576 µM | > 20 µM | – | – |
| COCCOc1cc2c(N[C@H](C)c3cccc(-c4cn[nH]c4)c3)nc(C)nc2cc1OC [Example 348, 7-methoxy-6-(2-methoxyethoxy)-2-methyl-N-{(1R)-1-[3-(1H-pyrazol-4-yl)phenyl]-ethyl}quinazolin-4-amine] | 0.753 µM | > 20 µM | – | – |
| CC[C@@H](O)c1ccccc1-c1ccc(C(C)Nc2nc(C)nc3cc(OC)c(OC)cc23)s1 (stereo partly drawn) [Example 349, (1R)-1-[2-(5-{1-[(6,7-dimethoxy-2-methylquinazolin-4-yl)amino]ethyl}thiophen-2-yl)phenyl]propan-1-ol] | 0.74 µM | > 20 µM | – | – |
| CCCCOc1cc2c(N[C@H](C)c3cccc(-c4cn[nH]c4)c3)nc(C)nc2cc1OC [Example 350, 6-butoxy-7-methoxy-2-methyl-N-{(1R)-1-[3-(1H-pyrazol-4-yl)phenyl]ethyl}quinazolin-4-amine] | 0.85 µM | > 20 µM | – | – |
| COc1cc2nc(C)nc(N[C@H](C)c3cccc(-c4cn[nH]c4)c3)c2cc1OCCC(C)C [Example 351, 7-methoxy-2-methyl-6-(3-methylbutoxy)-N-{(1R)-1-[3-(1H-pyrazol-4-yl)phenyl]ethyl}quinazolin-4-amine] | 1.31 µM | > 20 µM | – | – |
| COc1cc2nc(C)nc(NC(C)c3ccc(-c4ccccc4CCNC(=O)OC(C)(C)C)s3)c2cc1OC (stereo not shown) [Example 352, tert-butyl {2-[2-(5-{1-[(6,7-dimethoxy-2-methylquinazolin-4-yl)amino]ethyl}thiophen-2-yl)phenyl]ethyl}carbamate] | 18.2 µM | > 20 µM | – | – |
| COc1cc2nc(C)nc(N[C@H](C)c3cccc(-c4cn[nH]c4)c3)c2cc1OC(C)C [Example 353, 7-methoxy-2-methyl-6-(propan-2-yloxy)-N-{(1R)-1-[3-(1H-pyrazol-4-yl)phenyl]ethyl}quinazolin-4-amine] | 0.453 µM | > 20 µM | – | – |
| COc1cc2nc(C)nc(N[C@H](C)c3cccc(-c4cn[nH]c4)c3)c2cc1OCC1COC1 [Example 354, 7-methoxy-2-methyl-6-(oxetan-3-ylmethoxy)-N-{(1R)-1-[3-(1H-pyrazol-4-yl)phenyl]ethyl}quinazolin-4-amine] | 0.677 µM | > 20 µM | – | – |
| CCOc1cc2c(N[C@H](C)c3cccc(-c4cn[nH]c4)c3)nc(C)nc2cc1OC [Example 355, 6-Ethoxy-7-methoxy-2-methyl-N-{(1R)-1-[3-(1H-pyrazol-4-yl)phenyl]ethyl}-quinazolin-4-amine] | 0.714 µM | > 20 µM | – | – |
| CCOc1cc2c(N[C@H](C)c3cccc(-c4cnn(CC)c4)c3)nc(C)nc2cc1OC [Example 356, 6-ethoxy-N-{(1R)-1-[3-(1-ethyl-1H-pyrazol-4-yl)phenyl]ethyl}-7-methoxy-2-methylquinazolin-4-amine] | 0.933 µM | > 20 µM | – | – |
| COc1cc2nc(C)nc(NC(C)c3ccc(-c4ccccc4-c4cn[nH]c4)s3)c2cc1OC (stereo not shown) [Example 361, 6,7-dimethoxy-2-methyl-N-[1-{5-[2-(1H-pyrazol-4-yl)phenyl]thiophen-2-yl}ethyl]-quinazolin-4-amine] | 8.6 µM | > 20 µM | – | – |
| Cc1nc(N[C@H](C)c2cccc(Cl)c2)c2cc(Br)ccc2n1 [Example 363, 6-bromo-N-[(1R)-1-(3-chlorophenyl)ethyl]-2-methylquinazolin-4-amine] | 17.2 µM | > 20 µM | – | – |
| COc1cc2nc(C)nc(NC(C)c3ccc(-c4ccccc4CNC4CCCC4)s3)c2cc1OC (stereo not shown) [Example 364, N-[1-(5-{2-[(cyclopentylamino)methyl]phenyl}thiophen-2-yl)ethyl]-6,7-dimethoxy-2-methylquinazolin-4-amine] | 0.217 µM | > 20 µM | – | – |

From patent US20240083857A1, “2-Methyl-Quinazolines” (Bayer Pharma Aktiengesellschaft, priority 2017, published 2024)
